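Protocol summary: plate cells (96-well), add compound at 5 concentrations, incubate 48 h, interpolate endpoints linearly. At the GI50, growth is halved. TGI denotes the concentration required for complete inhibition of growth.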
Tests used:
Test in all cases: DTP human tumour cell line panel, 48 h
UO-31 renal = tested on: UO-31 renal
U251 CNS = tested on: U251 CNS
SK-MEL-2 melanoma = tested on: SK-MEL-2 melanoma
OVCAR-3 ovarian = tested on: OVCAR-3 ovarian
K-562 leukemia = tested on: K-562 leukemia
NCI/ADR-RES ovarian = tested on: NCI/ADR-RES ovarian
CAKI-1 renal = tested on: CAKI-1 renal
CCRF-CEM leukemia = tested on: CCRF-CEM leukemia
A549 NSCLC = tested on: A549 NSCLC
KM12 colon = tested on: KM12 colon

SMILES	GI50 (UO-31 renal)	TGI (UO-31 renal)	GI50 (U251 CNS)	TGI (U251 CNS)	GI50 (SK-MEL-2 melanoma)	TGI (SK-MEL-2 melanoma)	GI50 (OVCAR-3 ovarian)	TGI (OVCAR-3 ovarian)	GI50 (K-562 leukemia)	TGI (K-562 leukemia)	GI50 (NCI/ADR-RES ovarian)	TGI (NCI/ADR-RES ovarian)	GI50 (CAKI-1 renal)	TGI (CAKI-1 renal)	GI50 (CCRF-CEM leukemia)	TGI (CCRF-CEM leukemia)	GI50 (A549 NSCLC)	TGI (A549 NSCLC)	GI50 (KM12 colon)	TGI (KM12 colon)
CCN(CC)CCS(=O)(=O)CCNc1ccnc2cc(Cl)ccc12	0.682 µM	8.8 µM	3.17 µM	13.9 µM	2.35 µM	14.1 µM	1.47 µM	15.3 µM	0.96 µM	> 49.8 µM	1.12 µM	4.73 µM	0.782 µM	6.08 µM	0.663 µM	> 38.6 µM	4.12 µM	> 61.7 µM	2.41 µM	> 24.3 µM
Nc1n[nH]c2ccc([C@@H]3Nc4c(F)cc5[nH]ncc5c4[C@H]4C5CCC(C5)[C@@H]34)cc12 (stereo not given in full)	0.587 µM	> 52.6 µM	0.376 µM	17.3 µM	0.598 µM	> 44.3 µM	0.216 µM	0.735 µM	0.0546 µM	> 52.1 µM	0.234 µM	5.84 µM	0.329 µM	> 47.5 µM	0.332 µM	> 52.1 µM	0.352 µM	> 100 µM	0.287 µM	4.87 µM
CCc1c(C#N)c(SC(C(N)=O)c2ccccc2)nc(N2CCC(N)CC2)c1C#N (stereo not given)	> 100 µM	> 100 µM	15.7 µM	30.5 µM	14.7 µM	28.5 µM	14.5 µM	28.2 µM	12.4 µM	28.6 µM	> 100 µM	> 100 µM	14.7 µM	28.6 µM	15.2 µM	36.8 µM	18.4 µM	44.2 µM	15.9 µM	31.4 µM
Cc1cn2c(/C=C3/C(=O)Nc4ccc(C(=O)O)cc43)c(C)nc2s1	> 100 µM	> 100 µM	> 100 µM	> 100 µM	> 100 µM	> 100 µM	> 100 µM	> 100 µM	> 100 µM	> 100 µM	> 100 µM	> 100 µM	> 100 µM	> 100 µM	> 100 µM	> 100 µM	> 100 µM	> 100 µM	> 100 µM	> 100 µM
O=C(O)Cn1ccc(=O)c2c([N+](=O)[O-])cccc21		> 100 µM		> 100 µM		> 100 µM		> 100 µM		> 100 µM		> 100 µM		> 100 µM		> 100 µM		> 100 µM		> 100 µM
Nc1ccn([C@@H]2S[C@H](CO)[C@@H](O)[C@@H]2F)c(=O)n1	0.0356 µM		0.367 µM	> 100 µM	> 100 µM	> 100 µM	> 51.1 µM	> 100 µM	0.23 µM	> 100 µM	0.0325 µM	> 100 µM	0.0412 µM	> 100 µM	< 0.01 µM	> 100 µM	0.161 µM	> 100 µM	8.65 µM	> 100 µM
Cc1ccc(C(=O)N2C/C(=C/c3ccccc3)C(=O)/C(=C/c3ccccc3)C2)cc1	10.2 µM	> 100 µM	3.28 µM	> 100 µM	> 62.8 µM	> 100 µM	6.8 µM	> 100 µM	1.66 µM	> 100 µM	27.7 µM	> 100 µM	> 57.5 µM	> 100 µM	2.23 µM	> 100 µM	63.3 µM	> 100 µM	1.43 µM	6.94 µM
Cc1ccc(-c2nc(C(Cl)Cl)nc3cc(C)nn23)cc1	3.38 µM	> 100 µM			> 100 µM	> 100 µM	1.47 µM	3.42 µM	2.3 µM	> 100 µM	1.18 µM	5.73 µM	1.59 µM	5.42 µM	4.82 µM	> 100 µM	1.33 µM	6.21 µM		
Oc1ccc(-c2[nH]c3ccccc3c2-c2nc3ccccc3o2)cc1	0.893 µM	13.9 µM	2.86 µM	11.6 µM	3.03 µM	12.3 µM	3.05 µM	9.8 µM	3.98 µM	21.8 µM	2.63 µM	9.04 µM	2.62 µM	14.2 µM	4.91 µM	46.2 µM	3.15 µM	11.4 µM	2.05 µM	6.95 µM
COc1ncc2cc1NS(=O)(=O)c1cccc(c1)C(=O)NCC1=CC=C(S1)c1ncnc3c1SC2=C3C	0.0733 µM	1.7 µM	0.17 µM	2.03 µM	0.225 µM	1.15 µM	0.115 µM	0.431 µM	0.596 µM	> 100 µM	0.542 µM	9.63 µM	0.0795 µM	10.3 µM	0.153 µM	1.16 µM	0.158 µM	0.805 µM	0.269 µM	1.34 µM
Cc1ccc(O)cc1Nc1ccnc2cc(-c3ccccn3)ccc12	0.246 µM	3.77 µM	3.29 µM	6.65 µM	3.86 µM	8.03 µM	2.14 µM	6.36 µM	0.0973 µM	2.52 µM	4.49 µM	15.3 µM	1.05 µM	4.36 µM	4.86 µM	15 µM	3.8 µM	8.39 µM	3.01 µM	6.57 µM
COc1cc2c(cc1OC)C(SC)C(=O)N(Cc1cccc(OC)c1OC)CC2 (stereo not given)		70 µM		> 69.3 µM		19.1 µM		7.03 µM		41.4 µM		88.8 µM		> 88.5 µM		> 55.6 µM		> 82.7 µM		40.3 µM
NCC(Cc1ccccc1)P(=O)(O)O (stereo not given)		> 100 µM		> 100 µM		> 100 µM		> 100 µM		> 100 µM		> 100 µM		> 100 µM		> 100 µM		> 100 µM		> 100 µM
C=CC(C)(O)CCC1C(=C)C(O)CC2C(C)(C)CCCC12C (stereo not given)		28.5 µM		28.8 µM		31.1 µM		39.9 µM		33.2 µM		41.1 µM		68.2 µM		45.4 µM		54.9 µM		52.1 µM
